Assay results from US10112950B2, “Substituted imidazo[1,2-a]pyrazines as LSD1 inhibitors” (Incyte Corporation, priority 2014, dated 2018).

Each compound was assayed against LSD-1 enzyme (Homo sapiens (Human), UniProt O60341) (assay: LANCE LSD1/KDM1A demethylase assay (LSD1 histone demethylase biochemical assay)). Conditions: 1 nM LSD-1 enzyme, 1 hour preincubation at 25° C., 0.4 μM Biotin-labeled Histone H3 peptide substrate.
Method: LSD1 Histone Demethylase Biochemical Assay
LANCE LSD1/KDM1A demethylase assay-10 μL of 1 nM LSD-1 enzyme (ENZO BML-SE544-0050) in the assay buffer (50 mM Tris, pH 7.5, 0.01% Tween-20, 25 mM NaCl, 5 mM DTT) were preincubated for 1 hour at 25° C. with 0.8 μL compound/DMSO dotted in black 384 well polystyrene plates. […] Reactions were stopped by addition of 10 μL 1× LANCE Detection Buffer (PerkinElmer CR97-100) supplemented with 1.5 nM Eu-anti-unmodified H3K4 Antibody (PerkinElmer TRF0404), and 225 nM LANCE Ultra Streptavidin (PerkinElmer TRF102) along with 0.9 mM Tranylcypromine-HCl (Millipore 616431). After stopping the reactions plates were incubated for 30 minutes and read on a PHERAstar FS plate reader (BMG Labtech).
With `Cc1ccc(-c2c(-c3ccc(C#N)cc3)nc(OC[C@@H]3CCCN(C)C3)c3nccn23)cc1CC#N` [Example 91, 4-(5-[3-(cyanomethyl)-4-methylphenyl]-8-{[(3R)-1-methylpiperidin-3-yl]methoxy}imidazo[1,2-a]pyrazin-6-yl)benzonitrile] the IC50 was ≤ 50 nM. `Cc1cc(-c2c(-c3ccc(C#N)cc3)nc(N3CCC(N(C)C)CC3)c3nccn23)cnc1C` [Example 92, 4-[8-[4-(dimethylamino)piperidin-1-yl]-5-(5,6-dimethylpyridin-3-yl)imidazo[1,2-a]pyrazin-6-yl]benzonitrile] was tested, and the IC50 was ≤ 50 nM. In the case of `Cc1ncc(-c2c(-c3ccc(C#N)cc3)nc(N3CCC(N(C)C)CC3)c3nccn23)cc1O` [Example 94, 4-[8-[4-(dimethylamino)piperidin-1-yl]-5-(5-hydroxy-6-methylpyridin-3-yl)imidazo[1,2-a]pyrazin-6-yl]benzonitrile], the IC50 is reported as ≤ 50 nM. `Cc1ccc(-c2c(-c3ccc(C#N)cc3)nc(N3CCC(N(C)C)CC3)c3nccn23)cc1CO` [Example 96, 4-{8-[4-(dimethylamino)piperidin-1-yl]-5-[3-(hydroxymethyl)-4-methylphenyl]imidazo[1,2-a]pyrazin-6-yl}benzonitrile] was tested, and the IC50 was ≤ 50 nM. In the case of `Cc1cc(-c2c(-c3ccc(C#N)cc3)nc(N3CCC(N(C)C)CC3)c3nccn23)cc(F)c1CO` [Example 97, 4-{8-[4-(dimethylamino)piperidin-1-yl]-5-[3-fluoro-4-(hydroxymethyl)-5-methylphenyl]imidazo[1,2-a]pyrazin-6-yl}benzonitrile], the IC50 is reported as ≤ 50 nM. In the case of `CN1C(=O)Cc2cc(-c3c(-c4ccc(C#N)cc4)nc(N4CCC(N(C)C)CC4)c4nccn34)ccc21` [Example 98, 4-[8-[4-(dimethylamino)piperidin-1-yl]-5-(1-methyl-2-oxo-2,3-dihydro-1H-indol-5-yl)imidazo[1,2-a]pyrazin-6-yl]benzonitrile], the IC50 is reported as ≤ 50 nM. `CN(C)C1CCCN(c2nc(-c3ccc(C#N)cc3)c(-c3ccc(N4CCCC4=O)nc3)n3ccnc23)C1` (stereo not shown) [Example 99, 4-{8-[3-(dimethylamino)piperidin-1-yl]-5-[6-(2-oxopyrrolidin-1-yl)pyridin-3-yl]imidazo[1,2-a]pyrazin-6-yl}benzonitrile] was tested, and the IC50 was ≤ 50 nM. For `CN1CCN(c2ccc(-c3c(-c4ccc(C#N)cc4)nc(N4CCC(N(C)C)CC4)c4nccn34)cn2)C1=O` [Example 100, 4-{8-[4-(dimethylamino)piperidin-1-yl]-5-[6-(3-methyl-2-oxoimidazolidin-1-yl)pyridin-3-yl]imidazo[1,2-a]pyrazin-6-yl}benzonitrile], the IC50 was ≤ 50 nM. With `CN(C)C1CCN(c2nc(-c3ccc(C#N)cc3)c(-c3ccc4nccnc4c3)n3ccnc23)CC1` [Example 101, 4-{8-[4-(dimethylamino)piperidin-1-yl]-5-quinoxalin-6-ylimidazo[1,2-a]pyrazin-6-yl}benzonitrile] the IC50 was ≤ 50 nM. For `CN1C(=O)CCc2cc(-c3c(-c4ccc(C#N)cc4)nc(N4CCC(N(C)C)CC4)c4nccn34)ccc21` [Example 102, 4-[8-[4-(dimethylamino)piperidin-1-yl]-5-(1-methyl-2-oxo-1,2,3,4-tetrahydroquinolin-6-yl)imidazo[1,2-a]pyrazin-6-yl]benzonitrile], the IC50 was ≤ 50 nM. For `CN(C)C1CCN(c2nc(-c3ccc(C#N)cc3)c(-c3cnc4c(c3)cc(CO)n4C)n3ccnc23)CC1` [Example 103, 4-{8-[4-(dimethylamino)piperidin-1-yl]-5-[2-(hydroxymethyl)-1-methyl-1H-pyrrolo[2,3-b]pyridin-5-yl]imidazo[1,2-a]pyrazin-6-yl}benzonitrile], the IC50 was ≤ 50 nM. `CCn1c(=O)oc2cc(-c3c(-c4ccc(C#N)cc4)nc(N4CCC(N(C)C)CC4)c4nccn34)cnc21` [Example 105, 4-[8-[4-(dimethylamino)piperidin-1-yl]-5-(3-ethyl-2-oxo-2,3-dihydro[1,3]oxazolo[4,5-b]pyridin-6-yl)imidazo[1,2-a]pyrazin-6-yl]benzonitrile] was tested, and the IC50 was ≤ 50 nM. `CN(C)C1CCN(c2nc(-c3ccc(C#N)cc3)c(-c3ccc4c(c3)ncn4C)n3ccnc23)CC1` [Example 106, 4-[8-[4-(dimethylamino)piperidin-1-yl]-5-(1-methyl-1H-benzimidazol-5-yl)imidazo[1,2-a]pyrazin-6-yl]benzonitrile] was tested, and the IC50 was ≤ 50 nM. For `CN1C(=O)COc2cc(-c3c(-c4ccc(C#N)cc4)nc(N4CCC(N(C)C)CC4)c4nccn34)cnc21` [Example 107, 4-[8-[4-(dimethylamino)piperidin-1-yl]-5-(4-methyl-3-oxo-3,4-dihydro-2H-pyrido[3,2-b][1,4]oxazin-7-yl)imidazo[1,2-a]pyrazin-6-yl]benzonitrile], the IC50 was ≤ 50 nM. With `CN1CCN(c2ccc(-c3c(-c4ccc(C#N)cc4)nc(N4CCC(N(C)C)CC4)c4nccn34)cn2)CC1=O` [Example 109, 4-{8-[4-(dimethylamino)piperidin-1-yl]-5-[6-(4-methyl-3-oxopiperazin-1-yl)pyridin-3-yl]imidazo[1,2-a]pyrazin-6-yl}benzonitrile] the IC50 was ≤ 50 nM. `CN(C)C1CCN(c2nc(-c3ccc(C#N)cc3)c(-c3ccc4c(c3)c(CO)nn4C)n3ccnc23)CC1` [Example 110, 4-{8-[4-(dimethylamino)piperidin-1-yl]-5-[3-(hydroxymethyl)-1-methyl-1H-indazol-5-yl]imidazo[1,2-a]pyrazin-6-yl}benzonitrile] was tested, and the IC50 was ≤ 50 nM. `CN1C(=O)Cc2cc(-c3c(-c4ccc(C#N)cc4)nc(N4CCC(N(C)C)CC4)c4nccn34)cnc21` [Example 111, 4-[8-[4-(dimethylamino)piperidin-1-yl]-5-(1-methyl-2-oxo-2,3-dihydro-1H-pyrrolo[2,3-b]pyridin-5-yl)imidazo[1,2-a]pyrazin-6-yl]benzonitrile] was tested, and the IC50 was ≤ 50 nM. `CN(C)C1CCN(c2nc(-c3ccc(C#N)cc3)c(-c3cnc4c(ccn4C)c3)n3ccnc23)CC1` [Example 112, 4-[8-[4-(dimethylamino)piperidin-1-yl]-5-(1-methyl-1H-pyrrolo[2,3-b]pyridin-5-yl)imidazo[1,2-a]pyrazin-6-yl]benzonitrile] was tested, and the IC50 was ≤ 50 nM. For `C[C@@H](O)c1nc2cc(-c3c(-c4ccc(C#N)cc4)nc(N4CCC(N(C)C)CC4)c4nccn34)ccc2n1C` [Example 113, 4-(8-[4-(dimethylamino)piperidin-1-yl]-5-{2-[(1R)-1-hydroxyethyl]-1-methyl-1H-benzimidazol-5-yl}imidazo[1,2-a]pyrazin-6-yl)benzonitrile], the IC50 was ≤ 50 nM. In the case of `Cc1nc2cc(-c3c(-c4ccc(C#N)cc4)nc(N4CCC(N(C)C)CC4)c4nccn34)ccc2n1C` [Example 115, 4-[8-[4-(dimethylamino)piperidin-1-yl]-5-(1,2-dimethyl-1H-benzimidazol-5-yl)imidazo[1,2-a]pyrazin-6-yl]benzonitrile], the IC50 is reported as ≤ 50 nM. With `COc1ncc(-c2c(-c3ccc(C#N)cc3)nc(N3CCC(N(C)C)CC3)c3nccn23)cc1O` [Example 118, 4-[8-[4-(dimethylamino)piperidin-1-yl]-5-(5-hydroxy-6-methoxypyridin-3-yl)imidazo[1,2-a]pyrazin-6-yl]benzonitrile] the IC50 was ≤ 50 nM. In the case of `COc1ncc(-c2c(-c3ccc(C#N)cc3)nc(OC[C@@H]3CCCN(C)C3)c3nccn23)cc1O` [Example 119, 4-(5-(5-hydroxy-6-methoxypyridin-3-yl)-8-{[(3R)-1-methylpiperidin-3-yl]methoxy}imidazo[1,2-a]pyrazin-6-yl)benzonitrile], the IC50 is reported as ≤ 50 nM.
